# Experimental data reported in PubChem BioAssay AID720589 (Broad Institute, 2013).
# Calls of active or inactive are those of the source.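 Rule for the calls: active = fitted curve drops below -35% activity at a concentration within twice the top valid tested dose; inconclusive = no clear call, values can overlap the other calls; inactive = signal rising instead of falling, among other cases.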
# Experiment: HepG2 hepatoma cell cytotoxicity, dose response, cytotoxicity control, CellTiter-Glo luminescence, cherry-pick, set 3 (AID 720589)
# Settings: HepG2 viability, ATP luminescence (CellTiter-Glo), 72 h, active compounds read low, 0% = untreated, negative = ATP loss
smiles,measurement,setting,value
CCOc1ccc(-c2noc(CCC(=O)O)n2)cc1,max activity,at 0.011 µM,7.93% (inactive)
CO[C@H]1CN(C)C(=O)c2cc(NC(=O)NC(C)C)ccc2OC[C@H](C)N(Cc2ccc(-c3ccccn3)cc2)C[C@@H]1C,max activity,at 8 µM,-24.8% (inactive)
COc1ccc(OC)c(-c2cc(C(F)(F)F)c3c(n2)sc2c(O)cc(=O)[nH]c23)c1,max activity,at 0.1 µM,-37% (inactive)
S=C(NCCN1CCOCC1)Nc1ccccc1Cl,max activity,at 0.035 µM,-36.4% (inactive)
COc1ccc(N=C2C(=O)Nc3ccc(C)c(Br)c32)cc1,max activity,at 0.011 µM,23.9% (inactive)
COc1ccc(-c2cn(-c3ccc(OC)cc3)c3[n+]2-c2ccccc2CC3)cc1,max activity,at 26 µM,-23.2% (inactive)
CCc1ccc2oc(C(=O)N3CCN(c4ccccc4OC)CC3)cc(=O)c2c1,max activity,at 0.9 µM,-16.2% (inactive)
CO[C@H]1CN(C)C(=O)c2cc(NC(=O)c3ccc(Oc4ccccc4)cc3)ccc2OC[C@H](C)NC[C@@H]1C,max activity,at 26 µM,-95.1% (inactive)
C[C@H]1CN([C@@H](C)CO)C(=O)c2cc(NS(=O)(=O)c3ccc(Cl)cc3)ccc2O[C@H]1CN(C)Cc1ccc(Cl)c(Cl)c1,max activity,at 0.3 µM,-20.4% (inactive)
O=C(CN1C(=O)C(=O)c2ccccc21)c1ccc(Cl)cc1,max activity,at 2.85 µM,-20.2% (inactive)
C[C@@H]1CN([C@H](C)CO)C(=O)CCCn2nncc2CO[C@H]1CN(C)Cc1ccc(Oc2ccccc2)cc1,max activity,at 26 µM,-33.6% (inactive)
O=C(Nc1nc(-c2ccc(F)c(F)c2)cs1)c1ccc(OCC2CCCO2)cc1 (centres undefined),max activity,at 26 µM,-28.7% (inactive)
CC1(CCc2ccccc2)NC(=O)N(CC(=O)N2CC(=O)Nc3ccccc32)C1=O (centres undefined),max activity,at 26 µM,-19.7% (inactive)
Cc1cc(C(=O)NNC(=O)c2ccc(S(=O)(=O)N(C)C)cc2)c(C)o1,max activity,at 0.011 µM,20% (inactive)
C[C@@H]1CN([C@@H](C)CO)C(=O)Cc2cc(N(C)C)ccc2O[C@@H]1CN(C)Cc1ccccc1,max activity,at 26 µM,-20.7% (inactive)
COc1ccc(C2=NNC(=Nc3cc(S(=O)(=O)N(C)C)ccc3C)SC2)c(OC)c1,max activity,at 26 µM,-17.3% (inactive)
O=C(Nc1cccc(Oc2ccc3c(c2)C(=O)NC3=O)c1)c1cccs1,max activity,at 8 µM,-36% (inactive)
COC(=O)C[C@@H]1CC[C@@H]2[C@H](COc3ccc(NC(=O)c4ccc(C(F)(F)F)cc4)cc3C(=O)N2C)O1,max activity,at 0.011 µM,-32.2% (inactive)
Cc1ccsc1/C=N/Nc1ccc(C(=O)O)cc1,max activity,at 26 µM,-27.6% (inactive)
CC(=NNc1ccc2ccccc2n1)c1ccccc1O,max activity,at 0.011 µM,-35.4% (inactive)
O=C(O)c1ccc(N/N=C/c2cc(Br)cs2)cc1,max activity,at 0.1 µM,-24.3% (inactive)
COc1cccc(OC)c1C(=O)Nc1cc(C)nn1-c1nc2ccccc2[nH]1,max activity,at 26 µM,-39.9% (inactive)
O=C(O)c1ccccc1C(=O)Nc1ccc(Oc2cccc3ccccc23)cc1,max activity,at 0.035 µM,-12.6% (inactive)
COc1ccc(/C=C2\SC(=S)N(CCCC(=O)NNC(=O)c3ccccc3O)C2=O)cc1,max activity,at 0.035 µM,-21.1% (inactive)
COC(=O)C[C@@H]1CC[C@@H]2[C@@H](COc3ccc(NC(=O)Cc4cccs4)cc3C(=O)N2C)O1,max activity,at 2.85 µM,-25% (inactive)
N#C[C@@H]1[C@H](c2ccc(C#Cc3ccc(F)cc3)cc2)[C@@H](CO)N1C(=O)Nc1ccc(F)cc1,max activity,at 0.011 µM,-24.6% (inactive)
COc1ccc(NS(=O)(=O)c2cc(NC(=O)CNC(=O)c3cccc(OC)c3)ccc2C)cc1,max activity,at 0.011 µM,-35% (inactive)
COc1ccc(C/C(N)=N/OC(C)=O)cc1OC,max activity,at 0.1 µM,-33.4% (inactive)
COc1ccc(/C=C2/NC(=O)N(CC(=O)Nc3cccc(C)c3)C2=O)cc1O,max activity,at 0.011 µM,18.1% (inactive)
C[C@@H]1CN([C@H](C)CO)C(=O)c2cc(C#CCc3ccccc3)cnc2O[C@@H]1CN(C)Cc1cccc(F)c1,max activity,at 2.85 µM,-31.8% (inactive)
CCN1CCS/C1=C\C=C\C1=[N+](CC)CCS1,max activity,at 8 µM,-37.7% (inactive)
COC(=O)Cc1ccc(NC(=O)c2ccccc2Cl)cc1,max activity,at 0.1 µM,-26.9% (inactive)
CCOc1ccc(/C=C2\CCc3ccccc3C2=O)cc1,max activity,at 8 µM,-13.7% (inactive)
Nc1ccc(Oc2cccc(Oc3ccc(N)cc3)c2)cc1,max activity,at 0.011 µM,11.2% (inactive)
CC1=NC(=O)C(N=Nc2cccc(C(=O)O)c2)N1c1ccccc1 (centres undefined),max activity,at 26 µM,-23.4% (inactive)
COC(=O)C[C@@H]1CC[C@@H]2[C@H](COc3ccc(NC(=O)c4cccc(F)c4)cc3C(=O)N2C)O1,max activity,at 0.3 µM,-26.8% (inactive)
Cc1ccccc1N=CC1=C(O)c2ccccc2C1=O,max activity,at 2.85 µM,18.8% (inactive)
COc1ccc(C2c3cc4c(cc3OC(NNC(N)=O)C2C)OCO4)cc1 (centres undefined),max activity,at 8 µM,-29.8% (inactive)
CCCc1nc2ccc(NC(=O)c3cccs3)cc2c(=O)n1Cc1ccccc1Cl,max activity,at 2.85 µM,-32.5% (inactive)
CN1c2ccc(-c3ccc(C#N)cc3)cc2[C@H]2[C@H](CCN2S(=O)(=O)c2cccc(F)c2)[C@@H]1CO,max activity,at 26 µM,33.3% (inactive)
O=C(CNC(=O)Cc1ccccc1)N=Nc1c(O)n(Cc2ccc3c(c2)OCO3)c2ccccc12,max activity,at 0.3 µM,-28.9% (inactive)
COc1cc(/C=N/NS(=O)(=O)c2ccc(C)cc2)ccc1OCc1cccc(C(=O)O)c1,max activity,at 8 µM,-15.9% (inactive)
C[C@@H]1CN([C@H](C)CO)S(=O)(=O)c2ccc(C#Cc3ccncc3)cc2O[C@@H]1CN(C)C(=O)Nc1ccc2c(c1)OCO2,max activity,at 0.035 µM,-31.9% (inactive)
CCn1c(/C=N/NC(=O)c2ccc(OC)cc2)nc2ccccc21,max activity,at 0.011 µM,-35.2% (inactive)
N#C[C@H]1N[C@H](CO)[C@H]1c1ccc(C#Cc2ccccc2F)cc1,max activity,at 23.5 µM,-26.9% (inactive)
COC(=O)C[C@@H]1CC[C@H]2[C@H](COc3ccc(NC(=O)Nc4cc(C)cc(C)c4)cc3C(=O)N2C)O1,max activity,at 0.35 µM,15% (inactive)
Cc1c(-c2nc(-c3ccc(C(C)(C)C)cc3)no2)n(C)oc1=O,max activity,at 0.011 µM,-27.3% (inactive)
COc1cccc(S(=O)(=O)N(C)C[C@H]2OCc3cnnn3CCCC(=O)N([C@@H](C)CO)C[C@H]2C)c1,max activity,at 0.1 µM,-29.1% (inactive)
C[C@H]1CN([C@@H](C)CO)C(=O)Cc2cc(NC(=O)C3CC3)ccc2O[C@H]1CN(C)S(=O)(=O)c1ccc(Cl)cc1,max activity,at 0.035 µM,-39.2% (inactive)
CC(C)(C)c1ccc(Oc2ccc(NC(=O)C3CC=CCC3C(=O)O)cc2)cc1 (centres undefined),max activity,at 26 µM,17.4% (inactive)
O=S(=O)(c1ccc(F)cc1)N1C[C@H]2[C@@H](c3ccccc31)[C@H](CO)N2Cc1ccccc1Cl,max activity,at 23.5 µM,-21.9% (inactive)
O=C(C[C@@H]1C[C@H]2c3cc(NC(=O)CC4CC4)ccc3O[C@H]2[C@H](CO)O1)NCc1ccccc1F,max activity,at 2.85 µM,-31.6% (inactive)
COc1cc(/C=N\Nc2nc(-c3ccc(C)cc3)c(NC(C)=O)s2)ccc1O,max activity,at 0.9 µM,-20.6% (inactive)
Cc1occc1-c1n[nH]c(=S)n1C,max activity,at 0.1 µM,-6.52% (inactive)
Cc1ccc(/C=C2\SC(=S)N(CCC(=O)NNC(=O)c3ccccc3O)C2=O)cc1,max activity,at 0.3 µM,-42.1% (inactive)
CCCn1nnc(NC(=S)NC(=O)C(C)(C)C)n1,max activity,at 26 µM,-35.2% (inactive)
C[C@@H]1CN([C@H](C)CO)C(=O)c2cc(NC(=O)CCCCCC(=O)Nc3ccccc3N)ccc2O[C@@H]1CN(C)Cc1ccc(Cl)c(Cl)c1,max activity,at 0.9 µM,13.5% (inactive)
CCOc1ccc(N=C2C(=O)Nc3ccc(C)c(Br)c32)cc1,max activity,at 0.1 µM,11.1% (inactive)
C[C@@H]1CN([C@@H](C)CO)C(=O)c2cccc(NC(=O)Nc3cccc4ccccc34)c2O[C@@H]1CN(C)Cc1ccc(C(=O)Nc2ccccc2N)cc1,max activity,at 8 µM,-36.9% (inactive)
